Results reported in PubChem BioAssay AID1918937 (Molecular Pharmacology Branch, DTP, NCI, 2023).

Tested on: 521955-158-R2-J5-PDC complex spheroid viability
Experiment: Anticancer human tumor 521955-158-R2-J5-PDC patient-derived pancreatic carcinoma cell line growth inhibition
Settings: for IC50: curve of first compound; for viability, T/C: stronger effect = lower value
Description: Multicellular complex tumor spheroid response to LSD1 Inhibitor Iadademstat in combination with a variety of drugs and investigational agents in selected tumor cell lines
The current study was undertaken to assess response to LSD1 inhibitors in combination with standard-of-care drugs and investigational agents in solid tumor complex spheroid models as well as in the K-562 leukemia. Complex spheroids include a stromal component modeled by human endothelial cells (HUVEC) and fibroblasts modeled by human mesenchymal stem cells (MSCs). The concentration ranges selected for each drug and investigational agent were based upon clinically achievable concentrations if the clinical Cmax of the agent was known.
Compounds. The drugs and investigational agents used in this study are listed on Table 1. All of the agents used, including staurosporine (NSC755774) and gemcitabine (NSC613327), were obtained from the Developmental Therapeutics Program, NCI. FDA-approved anticancer drugs are available from the NCI at http://dtp.nci.nih.gov/branches/dscb/oncology_drugset_explanation.html. Drugs and investigational agents were >95% pure by proton nuclear magnetic resonance (NMR) and liquid chromatography/mass spectrometry (LC/MS). Stock solutions were prepared at 400x in DMSO, stored at -70 degrees C, and diluted in fresh medium prior to their use. The final concentration of DMSO in cell culture wells never exceeded 0.25% (v/v). The FDA-approved anticancer drug set is available from the Developmental Therapeutics Program at https://dtp.cancer.gov/organization/dscb/obtaining/available_plates.htm. All drugs and investigational agents were tested over a range starting from a high concentration at or near the clinical Cmax and decreasing in half-log increments. If the clinical Cmax for an agent had not been determined, the highest concentration tested was 10 microM.
Cell Lines. The patient-derived cancer cell (PDC) lines: 292921-168-R-J2-PDC, K24384-001-R-PDC, and 521955-158-R2-J5-PDC pancreatic carcinomas, 556581-035-R-J1 ovarian carcinoma, 324938-238-R-J1-PDC, 855422-203-R-J1-PDC and 883617-216-R-J1-PDC urothelial bladder carcinomas, 743489-274-T-PDC renal cell carcinoma, 138582-R-J1 Merkel cell tumor, K60290-347-R-J1 and K57222-313-R-J1-PDC glioblastomas, 653999-131-R-J2-PDC, LG0703-F948-PDC, and 349418-098-R-PDC non-small cell lung carcinomas, 885512-296-R-J2-PDC, 171881-019-R-J1-PDC breast carcinomas and 186277-243-T-J2-PDC and 233499-124-R-J2-PDC colon carcinomas were obtained from the NCI Patient-Derived Models Repository (PDMR, https://pdmr.cancer.gov). The established cell lines NCI/ADR-RES (RRID:CVCL_14520 and OVCAR-5 (RRID:CVCL_1628) ovarian carcinomas, 786-O (RRID:CVCL_1051) and A498 (RRID:CVCL_A498) renal cell carcinoma, NCI-H211 (ATCC, cat. CRL-5824; RRID:CVCL_1529), NCI-H196 (ATCC, cat. CRL-5823, RRID:CVCL_1509), SW 1271 (ATCC, cat. CRL-2177, RRID:CVCL_1716) and NCI-H1876 (ATCC, cat. CRL-5902, RRID:CVCL_1503) small cell lung carcinomas, MDA-MB-231 (RRID:CVCL_0062) and MDA-MB-468 (RRID:CVCL_0419)breast carcinomas (10-12). Pooled donor human umbilical vein endothelial cells (HUVEC, Lonza, cat. CC-2519) and human mesenchymal stem cells (hMSC, Lonza, cat. PT-2501) were purchased from Lonza (Walkersville, MD).
Cell Culture. All cells were maintained in an incubator at 37 degrees C and 5% CO2 with 95% humidity. The PDC lines were cultured according to standard operating procedures established by the NCI PDMR (https://pdmr.cancer.gov). Briefly all PDCs were thawed and cultured in Matrigel-coated flasks prepared with a working solution of 1X Ham's F-12 nutrient mix, without supplementation (Invitrogen, Waltham, MA, cat. 11765054), 100 U/mL penicillin-streptomycin (Invitrogen, cat. 15140122), and 2.5% Matrigel (Corning Inc., Corning, NY, cat. 354248) for the first three passages. […]

[1] = second compound 0.1 µM, first compound 0.000949 µM
[2] = second compound 0.1 µM, first compound 0.003 µM
[3] = second compound 0.1 µM, first compound 0.00949 µM
[4] = second compound 0.1 µM, first compound 0.03 µM
[5] = second compound 0.1 µM, first compound 0.0949 µM
[6] = second compound 0.1 µM, first compound 0.3 µM
[7] = second compound 0.316 µM, first compound 0.000949 µM
[8] = second compound 0.316 µM, first compound 0.003 µM
[9] = second compound 0.316 µM, first compound 0.00949 µM
[10] = second compound 0.316 µM, first compound 0.03 µM
[11] = second compound 0.316 µM, first compound 0.0949 µM
[12] = second compound 0.316 µM, first compound 0.3 µM
[13] = second compound 1 µM, first compound 0.000949 µM
[14] = second compound 1 µM, first compound 0.003 µM
[15] = second compound 1 µM, first compound 0.00949 µM
[16] = second compound 1 µM, first compound 0.03 µM
[17] = second compound 1 µM, first compound 0.0949 µM
[18] = second compound 1 µM, first compound 0.3 µM
[19] = second compound 3.16 µM, first compound 0.000949 µM
[20] = second compound 3.16 µM, first compound 0.003 µM
[21] = second compound 3.16 µM, first compound 0.00949 µM
[22] = second compound 3.16 µM, first compound 0.03 µM
[23] = second compound 3.16 µM, first compound 0.0949 µM
[24] = second compound 3.16 µM, first compound 0.3 µM
[25] = second compound 10 µM, first compound 0.000949 µM
[26] = second compound 10 µM, first compound 0.003 µM
[27] = second compound 10 µM, first compound 0.00949 µM
[28] = second compound 10 µM, first compound 0.03 µM
[29] = second compound 10 µM, first compound 0.0949 µM
[30] = second compound 10 µM, first compound 0.3 µM
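Also: spheroids exposed to agents for seven days.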
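For viability, T/C in this document: percent of DMSO vehicle control luminescence viability.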

Structure (SMILES) | IC50 (second compound 0.1 µM) [nM] | IC50 (second compound 0.316 µM) [nM] | IC50 (second compound 1 µM) [nM] | IC50 (second compound 3.16 µM) [nM] | IC50 (second compound 10 µM) [nM] | viability, T/C [1] [%] | viability, T/C [2] [%] | viability, T/C [3] [%] | viability, T/C [4] [%] | viability, T/C [5] [%] | viability, T/C [6] [%] | viability, T/C [7] [%] | viability, T/C [8] [%] | viability, T/C [9] [%] | viability, T/C [10] [%] | viability, T/C [11] [%] | viability, T/C [12] [%] | viability, T/C [13] [%] | viability, T/C [14] [%] | viability, T/C [15] [%] | further results
CCc1c2c(nc3ccc(O)cc13)-c1cc3c(c(=O)n1C2)COC(=O)[C@]3(O)CC + NC1CC1c1ccc(-c2cccc(O)c2)cc1 | < 0.949 | < 0.949 | < 0.949 | < 0.949 | < 0.949 | 10.3 | 8.53 | 1.37 | 0.77 | 0.88 | 1.18 | 14 | 8.17 | 1.18 | 0.73 | 0.87 | 1.5 | 11.7 | 9.8 | 1.34 | viability, T/C [16]: 1.1%; viability, T/C [17]: 0.66%; viability, T/C [18]: 1.78%; viability, T/C [19]: 13.4%; viability, T/C [20]: 8.84%; viability, T/C [21]: 1.07%; viability, T/C [22]: 0.72%; viability, T/C [23]: 0.84%; viability, T/C [24]: 2.14%; viability, T/C [25]: 17.5%; viability, T/C [26]: 13%; viability, T/C [27]: 1.18%; viability, T/C [28]: 0.43%; viability, T/C [29]: 0.52%; viability, T/C [30]: 0.74%
Nc1ccn(C2OC(CO)C(O)C2(F)F)c(=O)n1 (stereo not given) + NC1CC1c1ccc(-c2cccc(O)c2)cc1 | 66.8 | 70.8 | 69.9 | 57 | 36.5 | 86.9 | 86.4 | 84 | 66.8 | 42.8 | 23.4 | 83.2 | 89.1 | 79.1 | 66 | 44.9 | 24.9 | 90.8 | 84 | 87.3 | viability, T/C [16]: 63.3%; viability, T/C [17]: 45.8%; viability, T/C [18]: 26.5%; viability, T/C [19]: 90.1%; viability, T/C [20]: 94.8%; viability, T/C [21]: 92%; viability, T/C [22]: 67.7%; viability, T/C [23]: 36.3%; viability, T/C [24]: 27.5%; viability, T/C [25]: 97.4%; viability, T/C [26]: 87.9%; viability, T/C [27]: 80.3%; viability, T/C [28]: 52.5%; viability, T/C [29]: 36%; viability, T/C [30]: 33.9%
